According to paper PMC12125541, “Timed chromatin invasion during mitosis governs prototype foamy virus integration site selection and infectivity” (Nucleic Acids Research, 2025):
* marks the point of attachment. Biotin = O=C1N[C@H]2[C@H](CS[C@H]2CCCCC(=O)*)N1

How the values were obtained:
recombinant NCPs [1] = test: Streptavidin pull-down of recombinant nucleosomes with biotinylated Gag CBS peptides; format: binding, human; details: 2 h at 4°C; for pull-down of nucleosomes: 75–150 mM NaCl, 1.5 μg biotinylated peptide, 3 μg NCP, Coomassie gel
Description: Recombinant nucleosome core particles (NCPs) (mono-nucleosomes) were assembled as previously described. Briefly, individual human histones H2A, H2B, H3, and H4 were purchased (The Histone Source; Colorado State University) and octamers were assembled by dialysis. The Widom-601 DNA [25] was generated by restriction enzyme digestion of a concatenated construct and purified by anion exchange chromatography onto a POROS-HQ column. NCPs were assembled with a ratio 1.1:1 (1.1 octamer:1 DNA) by successive steps of salt dialysis against TEN buffer (0–2 M NaCl, 10 mM Tris, pH 7.5, 1 mM ethylenediaminetetraacetic acid, 1 mM Dithiothreitol (DTT)). NCPs were kept at −80°C in 0 mM NaCl TEN buffer.
Twenty microliters of streptavidin beads (Dynabeads™ MyOne™ Streptavidin T1; Invitrogen; Thermo Fisher Scientific) were used per condition. StreptaBeads were washed twice with pull-down buffer (20 mM Tris–HCl, pH 7.5, 0.1% NP-40, 10% glycerol, 75–150 mM NaCl, 0.5 mM DTT, and 1 mM Phenylmethylsulfonyl fluoride (PMSF)) containing 75 mM of NaCl and 100 μg of bovine serum albumin (BSA), followed by one wash in the same conditions, without BSA. 1.5 μg of Gag CBS (chromatin binding site) biotinylated peptide and 3 μg of recombinant NCPs were added per condition, in a final volume of 800 μl of pull-down buffer with corresponding NaCl concentrations. The reaction mix was incubated for 2 h on a rotation wheel, at 4°C. Beads were washed three times with the corresponding NaCl concentration buffer, and bound proteins were eluted by the addition of 10 μl of SDS Sample Buffer 2.5×. Samples were separated by sodium dodecyl sulfate–polyacrylamide gel electrophoresis, and analyzed after colloidal Coomassie blue staining.

[2] = system: NCP saturated with H4 tails (H2A–H2B acidic patch); test: BLI competition: immobilized Gag CBS peptides versus NCP saturated with H4 tails; format: binding, human; details: mean of two experiments; for binding to NCP saturated with WT H4 tail: 100 nM NCP pre-incubated with 100 μM H4 WT peptide at least 30 min at room temperature
Method: Quantitative interaction experiments were performed by biolayer interferometry (BLI), using a BLItz instrument (Octet® N1; Sartorius). Two different runs were performed: the first one, into water, to coat biosensors with biotinylated peptides (Table 1) and the second, into Blitz buffer [1× phosphate buffer saline, pH 7.4, 0.02% (v/v) Tween 20, 0.1% (w/v) BSA], to fix NCPs on immobilized peptides. All steps were performed under 2200 rpm shaking speed. Streptavidin biosensors (Octet®SA Biosensors; Reference 18-0009; Sartorius) were first pre-wet for at least 10 min with water. The baseline, with only water, was measured for 60 s. Ten micromolar Gag CBS biotinylated peptides (or H4 biotinylated peptides), diluted in water, were loaded onto the biosensors, for 180 s, to reach a binding of ∼1.5 nm, followed by a dissociation step of 180 s. Following the first run, coated biosensors were equilibrated for at least 10 min in Blitz buffer. The second run started with 60 s of baseline, followed by the association step, where biosensors were dipped into serial dilutions of NCPs (10, 25, 50, or 100 nM), for 300 s. Finally, the dissociation step was performed in Blitz buffer, for 300 s. For competition experiments, the second run started with 60 s of baseline in Blitz buffer, followed by 300 s of association step. During this step, solutions of 100 nM of NCPs were pre-incubated with or without 100 μM of H4 peptide [wild type (WT) or mutant, non-biotinylated], in Blitz buffer, for at least 30 min at room temperature. Finally, the dissociation step was performed in Blitz buffer, for 180 s. Nonspecific binding controls were performed, such as binding of 100 nM of NCPs on biosensors without biotinylated peptides loaded, as well as binding of Blitz buffer on loaded biosensors. For each time point measured, data of this second control (binding of Blitz buffer on biosensors loaded with biotinylated Gag WT peptide) were subtracted to every condition and were plotted on curves, using Prism 9 software.

recombinant NCPs [3] = test: BLI of immobilized biotinylated peptides with recombinant NCP; format: binding, human; details: for BLI interaction with nucleosomes: peptide on streptavidin biosensor, NCP 10, 25, 50 or 100 nM, 1× PBS pH 7.4, 0.02% Tween 20, 0.1% BSA, representative of three experiments
Description: Recombinant nucleosome core particles (NCPs) (mono-nucleosomes) were assembled as previously described [13]. Briefly, individual human histones H2A, H2B, H3, and H4 were purchased (The Histone Source; Colorado State University) and octamers were assembled by dialysis. The Widom-601 DNA [25] was generated by restriction enzyme digestion of a concatenated construct and purified by anion exchange chromatography onto a POROS-HQ column. NCPs were assembled with a ratio 1.1:1 (1.1 octamer:1 DNA) by successive steps of salt dialysis against TEN buffer (0–2 M NaCl, 10 mM Tris, pH 7.5, 1 mM ethylenediaminetetraacetic acid, 1 mM Dithiothreitol (DTT)). NCPs were kept at −80°C in 0 mM NaCl TEN buffer.
Quantitative interaction experiments were performed by biolayer interferometry (BLI), using a BLItz instrument (Octet® N1; Sartorius). Two different runs were performed: the first one, into water, to coat biosensors with biotinylated peptides (Table 1) and the second, into Blitz buffer [1× phosphate buffer saline, pH 7.4, 0.02% (v/v) Tween 20, 0.1% (w/v) BSA], to fix NCPs on immobilized peptides. All steps were performed under 2200 rpm shaking speed. Streptavidin biosensors (Octet®SA Biosensors; Reference 18-0009; Sartorius) were first pre-wet for at least 10 min with water. The baseline, with only water, was measured for 60 s. Ten micromolar Gag CBS biotinylated peptides (or H4 biotinylated peptides), diluted in water, were loaded onto the biosensors, for 180 s, to reach a binding of ∼1.5 nm, followed by a dissociation step of 180 s. Following the first run, coated biosensors were equilibrated for at least 10 min in Blitz buffer. The second run started with 60 s of baseline, followed by the association step, where biosensors were dipped into serial dilutions of NCPs (10, 25, 50, or 100 nM), for 300 s. […] For each time point measured, data of this second control (binding of Blitz buffer on biosensors loaded with biotinylated Gag WT peptide) were subtracted to every condition and were plotted on curves, using Prism 9 software.

[4] = molecular target: Gag Y537Q biotinylated peptide (PFV Gag CBS Y537Q) (prototype foamy virus (PFV)); test: BLI; biotinylated Gag CBS peptides on streptavidin biosensors; NCP 10, 25, 50 or 100 nM in solution; 1× PBS pH 7.4, 0.02% Tween 20, 0.1% BSA; BLItz instrument

Row | Substance | pull-down of nucleosomes (recombinant NCPs [1]) | binding to NCP saturated with WT H4 tail [2] | BLI interaction with nucleosomes (recombinant NCPs [3]) | other results
1 | Biotin-GGQNLRPRTYQPQRYG-OH [Y537Q CBS peptide, Biotinylated PFV Gag CBS peptide with Tyr537Gln substitution] | affected nucleosome interaction, though largely in a salt-independent manner | unable to effectively compete |  | binding to NCP saturated with H4 mut tail ([2]; 100 nM NCP pre-incubated with 100 μM H4 mut peptide at least 30 min at room temperature): unable to effectively compete
2 | Biotin-GGYNLQPRTYQPQRYG-OH [R540Q CBS peptide, Biotinylated PFV Gag CBS peptide with Arg540Gln substitution] |  | no interaction with the NCP | almost complete reduction | pull-down of nucleosomes, physiological salt (recombinant NCPs [1]; 125–150 mM NaCl): virtually eliminated binding; pull-down of nucleosomes, hypotonic conditions (recombinant NCPs [1]; low salt (below 125 mM NaCl)): reduced binding
3 | Biotin-GGYNLRPRTYQPQRYG-OH [WT CBS peptide] | efficiently pulled down nucleosomes across tested salt concentrations | reached the same level as without H4 tails | strongest BLI interaction | 
4 | Biotin-SGRGKGGKGLGKGGAKRHAAVLA-OH [H4 mut, reference compound] |  |  |  | binding of H4 tail peptide to purified NCPs (recombinant NCPs [3]; BLI, immobilized H4 peptide, Supplementary Fig. S7): retains some residual binding
5 | Recombinant nucleosome core particle (human histone octamer on Widom-601 DNA) (from UniProt P04908 1-130; P06899 1-126; P68431 1-136; P62805 1-103) (complex) |  |  |  | fold reduction of the BLI interaction against the WT CBS peptide [4]: 5 fold
